Earlier results, collected in publication PMC12776573, “Mechanism of Self-Assembly of the Gonadropin Releasing Hormone Antagonist Teverelix into Amyloid Fibrils” (Molecular Pharmaceutics, 2025).
Square brackets hold non-standard residues; d marks the D form. Peptide text beside a SMILES is read from it. dPhe(4-Cl) = N[C@H](Cc1ccc(Cl)cc1)C(=O)O; d2Nal = N[C@H](Cc1ccc2ccccc2c1)C(=O)O; d(hCit) = NC(=O)NCCCC[C@@H](N)C(=O)O; Lys(iPr) = CC(C)NCCCC[C@H](N)C(=O)O; d3Pal = N[C@H](Cc1cccnc1)C(=O)O

Settings: side chain of Tv thought to be deprotonated on fibril formation; not measured here, no reference given
Excerpt: Calculations establish that a single deprotonation event occurs (see the footnote to Table S1). Considering the pK a of all possible protonation sites in Tv, we think that the pyridine side c ...

pKa of the pyridine side chain: 5.22
Structure (SMILES): CC(=O)N[C@H](Cc1ccc2ccccc2c1)C(=O)N[C@H](Cc1ccc(Cl)cc1)C(=O)N[C@H](Cc1cccnc1)C(=O)N[C@@H](CO)C(=O)N[C@@H](Cc1ccc(O)cc1)C(=O)N[C@H](CCCCNC(N)=O)C(=O)N[C@@H](CC(C)C)C(=O)N[C@@H](CCCCNC(C)C)C(=O)N1CCC[C@H]1C(=O)N[C@H](C)C(N)=O [Tv, Ac-D-Nal(2)-D-Phe(4Cl)-D-Pal(3)-Ser-Tyr-D-Hcit-Leu-Lys(iPr)-Pro-D-Ala-NH2] (Ac-[d2Nal][dPhe(4-Cl)][d3Pal]SY[d(hCit)]L[Lys(iPr)]P[dA]-NH2)
